# From PubChem BioAssay (NCI)
#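 Five compound concentrations were applied to cells in 96-well plates for 48 hours; endpoints were derived by simple linear interpolation of the resulting dose-response curve. TGI: concentration producing complete growth inhibition.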
# Assays:
# Experiment in all cases: NCI-60 cell line screen, 48 h
# [1] = tested on: ACHN renal
# [2] = tested on: CCRF-CEM leukemia
# [3] = tested on: IGROV1 ovarian
# [4] = tested on: MALME-3M melanoma
# [5] = tested on: NCI-H460 lung
# [6] = tested on: OVCAR-3 ovarian
# [7] = tested on: SN12C renal
# [8] = tested on: SNB-19 CNS
# [9] = tested on: SNB-75 CNS
# [10] = tested on: SR leukemia
# [11] = tested on: UACC-257 melanoma
# [12] = tested on: UACC-62 melanoma
SMILES,TGI [1],TGI [2],TGI [3],TGI [4],TGI [5],TGI [6],TGI [7],TGI [8],TGI [9],TGI [10],TGI [11],TGI [12]
CCN(CC)CCNc1ccc([N+](=O)[O-])c2nc3ccc(OC)cc3c(NCCN(CC)CC)c12,> 10 µM,1.54 µM,7.15 µM,5.07 µM,1.41 µM,4.95 µM,3.69 µM,2.78 µM,> 5.11 µM,0.609 µM,> 10 µM,> 10 µM
S=C1Cc2c(-c3ccccc3)cc(-c3cccc(Cl)c3)nc2-c2ccccc2N1,3.89 µM,30.5 µM,4.56 µM,> 24.5 µM,7.11 µM,25.9 µM,16.7 µM,7.97 µM,5.86 µM,46.9 µM,35 µM,5.36 µM
[B]C(=O)NC(CC(C)C)C(=O)NCC(=O)NC1c2ccsc2C(=O)C1O (stereo not given) (tested in a mixture with another compound),> 100 µM,> 31.6 µM,> 100 µM,> 100 µM,> 31.6 µM,> 100 µM,> 100 µM,> 100 µM,> 100 µM,> 100 µM,> 100 µM,> 100 µM
COC(CN(C)C(=S)Nc1cccc2ccccc12)OC,> 10 µM,> 10 µM,> 10 µM,> 10 µM,> 10 µM,> 10 µM,> 10 µM,> 10 µM,> 10 µM,> 10 µM,> 10 µM,> 10 µM
CN(NC1=NCCO1)c1ccc2ccccc2c1,> 100 µM,49.5 µM,> 100 µM,> 100 µM,> 100 µM,72.7 µM,> 100 µM,> 100 µM,74.7 µM,> 100 µM,> 100 µM,> 100 µM
COC(=O)/C=C/c1ccc(OP(=O)(O)O)c(OC)c1,> 100 µM,> 100 µM,> 100 µM,> 100 µM,> 100 µM,> 100 µM,> 100 µM,> 100 µM,> 100 µM,> 100 µM,> 100 µM,> 100 µM
COc1ccc(-c2c(C3=NCCCN3)nnn2-c2ccccc2)cc1,> 100 µM,> 100 µM,> 100 µM,> 100 µM,> 100 µM,> 100 µM,> 100 µM,> 100 µM,> 100 µM,> 100 µM,> 100 µM,> 100 µM
CCN1CCC(O)(c2ccc([N+](=O)[O-])cc2)C(C(=O)c2ccc([N+](=O)[O-])cc2)C1 (stereo not given),32 µM,> 100 µM,35.5 µM,48.6 µM,48.7 µM,31.5 µM,38.8 µM,> 100 µM,> 100 µM,> 100 µM,33.7 µM,33 µM
O=C1CC(c2ccc(Cl)cc2)=Nc2ccccc2N1,> 100 µM,41.9 µM,> 100 µM,> 100 µM,> 100 µM,> 100 µM,> 100 µM,> 100 µM,50.2 µM,> 100 µM,> 100 µM,> 100 µM
C[C@@H](CC(=O)OCc1ccccc1)OC1OC(COC(=O)C(C)(C)C)C(OC(=O)C(C)(C)C)C(OC(=O)C(C)(C)C)C1OC(=O)C(C)(C)C (stereo not given in full),> 100 µM,> 100 µM,> 100 µM,> 100 µM,> 100 µM,> 100 µM,> 100 µM,> 100 µM,> 100 µM,> 100 µM,> 100 µM,> 100 µM
